# According to patent EP0305086A2, “Antibiotic A80577 and process for its production” (ELI LILLY AND COMPANY, priority 1987, dated 1989):
# Test system: Actinomadura verrucosospora A80577
# Test: Resistance of the producing culture to antibiotic sensitivity discs on seeded ISP No. 2 agar plates
# Type: cell-based
# Conditions: culture A80577 on ISP No. 2 agar
# Procedure: Resistance to antibiotics was measured by padding antibiotic sensitivity discs onto the surface of seeded ISP No. 2 agar plates.
# A80577 was resistant to: bacitracin 10 units, cephalothin 30 µg, lincomycin 2 µg, oleandomycin 15 µg, penicillin G 10 units, rifampin 5 µg, and tetracycline 30 µg. It was sensitive to: gentamicin 10 µg, neomycin 30 µg, streptomycin 10 µg, tobramycin 10 µg and vancomycin 30 µg.
molecule,measurement,setting,value
CCC[C@@H]1C[C@@H](C(=O)N[C@@H]([C@H]2O[C@H](SC)[C@H](O)[C@@H](O)[C@H]2O)[C@@H](C)O)N(C)C1 [lincomycin],Resistance to antibiotics (sensitivity disc),disc 2 µg,resistant
neomycin,Resistance to antibiotics (sensitivity disc),disc 30 µg,sensitive
CC(=O)OCC1=C(C(=O)O)N2C(=O)[C@@H](NC(=O)Cc3cccs3)[C@H]2SC1 [cephalothin],Resistance to antibiotics (sensitivity disc),disc 30 µg,resistant
CC1(C)S[C@@H]2[C@H](NC(=O)Cc3ccccc3)C(=O)N2[C@H]1C(=O)O [penicillin G],Resistance to antibiotics (sensitivity disc),disc 10 units,resistant
bacitracin,Resistance to antibiotics (sensitivity disc),disc 10 units,resistant
NC[C@H]1O[C@H](O[C@H]2[C@H](O)[C@@H](O[C@H]3O[C@H](CO)[C@@H](O)[C@H](N)[C@H]3O)[C@H](N)C[C@@H]2N)[C@H](N)C[C@@H]1O [tobramycin],Resistance to antibiotics (sensitivity disc),disc 10 µg,sensitive
gentamicin,Resistance to antibiotics (sensitivity disc),disc 10 µg,sensitive
CO[C@H]1C[C@H](O[C@H]2[C@H](C)[C@@H](O[C@@H]3O[C@H](C)C[C@H](N(C)C)[C@H]3O)[C@@H](C)C[C@@]3(CO3)C(=O)[C@H](C)[C@@H](O)[C@@H](C)[C@@H](C)OC(=O)[C@@H]2C)O[C@@H](C)[C@@H]1O [oleandomycin],Resistance to antibiotics (sensitivity disc),disc 15 µg,resistant
[H]/N=C(/N)N[C@H]1[C@H](O)[C@@H](O)[C@H](O[C@@H]2O[C@@H](C)[C@](O)(C=O)[C@H]2O[C@@H]2O[C@@H](CO)[C@H](O)[C@@H](O)[C@@H]2NC)[C@@H](N/C(N)=N\[H])[C@@H]1O [streptomycin],Resistance to antibiotics (sensitivity disc),disc 10 µg,sensitive
CO[C@H]1/C=C/O[C@@]2(C)Oc3c(C)c(O)c4c(O)c(c(/C=N/N5CCN(C)CC5)c(O)c4c3C2=O)NC(=O)/C(C)=C\C=C\[C@H](C)[C@H](O)[C@@H](C)[C@@H](O)[C@@H](C)[C@H](OC(C)=O)[C@@H]1C [rifampin],Resistance to antibiotics (sensitivity disc),disc 5 µg,resistant
CN[C@H](CC(C)C)C(=O)N[C@H]1C(=O)N[C@@H](CC(N)=O)C(=O)N[C@H]2C(=O)N[C@H]3C(=O)N[C@H](C(=O)N[C@H](C(=O)O)c4cc(O)cc(O)c4-c4cc3ccc4O)[C@H](O)c3ccc(c(Cl)c3)Oc3cc2cc(c3O[C@@H]2O[C@H](CO)[C@@H](O)[C@H](O)[C@H]2O[C@H]2C[C@](C)(N)[C@H](O)[C@H](C)O2)Oc2ccc(cc2Cl)[C@H]1O [vancomycin],Resistance to antibiotics (sensitivity disc),disc 30 µg,sensitive
